{"source": "patent US8063219B2", "about": "“Nitrogenous heterocyclic compounds, preparation thereof and use thereof as antibacterial medicaments” (Novexel, priority 2007, dated 2011)", "experiment_in_all_cases": "In vitro activity, dilution method in liquid medium (MIC)", "assay_type_in_all_cases": "cell-based", "key": {"[1]": {"system": "Pseudomonas aeruginosa 1771 strains wild type", "conditions": "for Activity against Pseudomonas aeruginosa (in words): in vitro", "experimental": "(§1) A series of tubes are prepared in which equal quantities of sterile nutrient medium are placed, and increasing quantities of the product being studied are placed in each tube then each tube is plated with a bacterial strain. After 24 hours incubation in an oven at 37° C., the growth inhibition is assessed by transillumination, which makes it possible to determine the minimum inhibition concentrations (MIC) expressed in μg/ml.\nTests are carried out in this way with the products of Examples 1 and 2 and compared with the products of Examples and 19 of application WO 02/100860."}, "[2]": {"system": "Pseudomonas aeruginosa PA01 wild type", "experimental": "as §1"}, "[3]": {"system": "Pseudomonas aeruginosa strains resisting via efflux pumps", "experimental": "as §1"}, "[4]": {"system": "Pseudomonas aeruginosa strain resisting via porin mutations", "conditions": "for MIC (μg/ml) 24 h: Resisting via porin mutations [1 strain]", "experimental": "as §1"}, "[5]": {"system": "Pseudomonas aeruginosa strains resisting via β-lactamases", "conditions": "Resisting via β-lactamases [8 strains]", "experimental": "as §1"}, "[6]": {"conditions": "1771 strains wild type, 24 h incubation at 37° C."}, "[7]": {"conditions": "Pseudomonas aeruginosa, 24 h, read-out: MIC (μg/ml) 24 h"}, "[8]": {"conditions": "Resisting via efflux pumps, second set [5 strains]"}}}
{"molecule": "CC(C)(O/N=C(\\C(=O)N[C@@H]1C(=O)N2C(C(=O)[O-])=C(C[n+]3ccccc3)CS[C@H]12)c1csc(N)n1)C(=O)O", "note": "[Ceftazidine, reference compound]", "values": [{"measurement": "MIC (μg/ml) 24 h", "setting": "[1]; [6]", "value": 1, "unit": "µg/mL"}, {"measurement": "MIC (μg/ml) 24 h", "setting": "[2]", "value": 2, "unit": "µg/mL"}, {"measurement": "MIC (μg/ml) 24 h", "setting": "[3]; Resisting via efflux pumps [11/5 strains], set not given", "value": "<=0.03-8 μg/ml"}, {"measurement": "MIC (μg/ml) 24 h", "setting": "[4]", "value": 2, "unit": "µg/mL"}, {"measurement": "MIC (μg/ml) 24 h", "setting": "[5]", "value": "2 to 32", "unit": "µg/mL"}]}
{"molecule": "C[C@@H](O)[C@H]1C(=O)N2C(C(=O)O)=C(SCCN=CN)C[C@H]12", "note": "[Imipenem, reference compound]", "values": [{"measurement": "MIC", "setting": "[1]; Pseudomonas aeruginosa, 1771 strains wild type, 24 h incubation at 37° C., read-out: MIC (μg/ml) 24 h", "value": 1, "unit": "µg/mL"}, {"measurement": "MIC", "setting": "[2]; Pseudomonas aeruginosa, PA01WILDTYPE, 24 h, read-out: MIC (μg/ml) 24 h", "value": 1, "unit": "µg/mL"}, {"measurement": "MIC", "setting": "[3]; [7]", "value": "0.25 to 4", "unit": "µg/mL"}, {"measurement": "MIC", "setting": "[4]; [7]", "value": 16, "unit": "µg/mL"}, {"measurement": "MIC", "setting": "[5]; [7]", "value": "2 to 32", "unit": "µg/mL"}]}
{"molecule": "The sodium and trifluoroacetate salt of trans[[8-(amino-methyl)-4,8-dihydro-6-oxo-5-(sulphooxy)-4,7-methano-7H-pyrazolo[3,4-e][1,3]diazepin-6(5H)-one [Ex 2]", "values": [{"measurement": "MIC (μg/ml) 24 h", "setting": "[1]; [6]", "value": 0.25, "unit": "µg/mL"}, {"measurement": "Activity against Pseudomonas aeruginosa (in words)", "setting": "[1]", "value": "very active"}, {"measurement": "MIC (μg/ml) 24 h", "setting": "[3]; [8]", "value": "—/0.5-1 μg/ml"}, {"measurement": "MIC (μg/ml) 24 h", "setting": "[5]", "value": "0.25 to 1", "unit": "µg/mL"}]}
{"molecule": "sodium and trifluoroacetate salts of trans[[8-(aminomethyl)-4,8-dihydro-1-methyl-6-oxo-5-(sulfooxy)-4,7-methano-7H-pyrazolo[3,4-e][1,3]diazepin-6(5H)-one [Ex 1]", "values": [{"measurement": "MIC (μg/ml) 24 h", "setting": "[1]; [6]", "value": 0.12, "unit": "µg/mL"}, {"measurement": "Activity against Pseudomonas aeruginosa (in words)", "setting": "[1]", "value": "very active"}, {"measurement": "MIC (μg/ml) 24 h", "setting": "[2]", "value": 1, "unit": "µg/mL"}, {"measurement": "MIC (μg/ml) 24 h", "setting": "[3]; Resisting via efflux pumps, first set [11 strains]", "value": "0.5 to 4", "unit": "µg⁻¹ mL⁻¹"}, {"measurement": "MIC (μg/ml) 24 h", "setting": "[3]; [8]", "value": "0.25 to 0.5", "unit": "µg/mL"}, {"measurement": "MIC (μg/ml) 24 h", "setting": "[4]", "value": 2, "unit": "µg/mL"}, {"measurement": "MIC (μg/ml) 24 h", "setting": "[5]", "value": "1 to 2", "unit": "µg/mL"}]}
